From publication PMC10817917, “Alkyl deoxyglycoside-polymyxin combinations against critical priority carbapenem-resistant gram-negative bacteria” (Scientific Reports, 2024)
Entries after “also recorded” stand apart in the source; their conditions may differ. Where two headings read alike, the source gives them in different places.

Tests used:
A. baumannii CQ4322 = experiment: Broth microdilution MIC/MBC, glycosides with or without polymyxins; assay type: cell-based, Acinetobacter baumannii; conditions: for MIC: Acinetobacter baumannii, CQ4322
E. coli NCTC 13846 = experiment: as above; assay type: cell-based, Escherichia coli; conditions: strain B
[1] = system: Bacillus anthracis (Sterne, ovine and pathogenic forms), Enterococcus faecalis and Bacillus cereus; conditions: Gram-positive bacteria; cited from earlier work
[2] = PE vs phosphatidylcholine (PC); cited from earlier work
K. pneumoniae CQ1942 = experiment: Broth microdilution MIC, glycosides with or without polymyxins; assay type: cell-based, Klebsiella pneumoniae; conditions: for MIC: Klebsiella pneumoniae, CQ1942
E. coli ATCC 25922 = experiment: Broth microdilution MIC/MBC, glycosides with or without polymyxins; assay type: cell-based, Escherichia coli; conditions: for MIC: Escherichia coli, ATCC25922
[3] = alone, read-out: MICA (MIC of each compound individually)
[4] = combination with the lowest FICI
[5] = compound + colistin, lowest FICI

SMILES: CCCCCCCCCCCCO[C@@H]1C[C@@H](O)[C@H](O)[C@@H](CO)O1 [Compound 4, dodecyl 2-deoxy-α-D-arabino-hexopyranoside]
- MIC (A. baumannii CQ4322; agent alone, no adjuvant (polymyxin conc. 0), strain G, read-out: MIC): > 100 µg/mL
- MIC (A. baumannii CQ4322; [3]): > 100 µg/mL
- MIC of colistin in combination with the compound (A. baumannii CQ4322; Cpd conc. 0.4 μg/mL, strain G): 0.5 µg/mL
- MIC of colistin in combination with the compound (A. baumannii CQ4322; Cpd conc. 0.8 μg/mL, strain G): 0.5 µg/mL
- MIC of colistin in combination with the compound (A. baumannii CQ4322; Cpd conc. 3.125 μg/mL, strain G): 0.5 µg/mL
- MIC of colistin in combination with the compound (A. baumannii CQ4322; Cpd conc. 6.25 μg/mL, strain G): 0.5 µg/mL
- MIC of colistin in combination with the compound (A. baumannii CQ4322; Cpd conc. 12.5 μg/mL, strain G): 0.5 µg/mL
- MIC of colistin in combination with the compound (A. baumannii CQ4322; Cpd conc. […], strain G): 0.5 µg/mL
- MIC of compound in combination with PMB (A. baumannii CQ4322; PMB 0.25 μg/mL, strain G): > 100 µg/mL
- MIC of compound in combination with colistin (A. baumannii CQ4322; colistin 0.25 μg/mL, strain G): > 100 µg/mL
- MIC of compound in combination with colistin (A. baumannii CQ4322; colistin 0.5 μg/mL, strain G): ≤ 0.1 µg/mL
- MICA(A + B) (MIC of compound in combination with colistin) (A. baumannii CQ4322; [4]): 0.4 µg/mL
- MICB(A + B) (MIC of colistin in combination with compound) (A. baumannii CQ4322; [4]): 0.5 µg/mL
- Interpretation (of FICI) (A. baumannii CQ4322; compound + colistin): Indifferent (1.0 to 4.0 were indifferent)
- FICI (A. baumannii CQ4322; [5]): 1.002
- MIC of colistin in combination with the compound (E. coli NCTC 13846; Cpd conc. 0.4 μg/mL): > 0.5 µg/mL
- MIC of colistin in combination with the compound (E. coli NCTC 13846; Cpd conc. 0.8 μg/mL): > 0.5 µg/mL
- MIC of colistin in combination with the compound (E. coli NCTC 13846; Cpd conc. 3.125 μg/mL): > 0.5 µg/mL
- MIC of colistin in combination with the compound (E. coli NCTC 13846; Cpd conc. 6.25 μg/mL): > 0.5 µg/mL
- MIC of colistin in combination with the compound (E. coli NCTC 13846; Cpd conc. 12.5 μg/mL): > 0.5 µg/mL
- MIC of colistin in combination with the compound (E. coli NCTC 13846; Cpd conc. […]): > 0.5 µg/mL
- MIC (E. coli NCTC 13846; Escherichia coli, NCTC13846, agent alone, no adjuvant (polymyxin conc. 0), read-out: MIC): > 100 µg/mL
- MIC of compound in combination with PMB (E. coli NCTC 13846; PMB 0.25 μg/mL): > 100 µg/mL
- MIC of compound in combination with PMB (E. coli NCTC 13846; PMB 0.5 μg/mL): > 100 µg/mL
- MIC of compound in combination with colistin (E. coli NCTC 13846; colistin 0.25 μg/mL): > 100 µg/mL
- MIC of compound in combination with colistin (E. coli NCTC 13846; colistin 0.5 μg/mL): > 100 µg/mL
- MIC [1]: 12 to 386 µM
- interaction with phosphatidylethanolamine (PE) [2]: Non PE-binder; also recorded: limited affinity towards PE
- MIC of colistin in combination with the compound (K. pneumoniae CQ1942; Cpd conc. 0.4 μg/mL, strain E): 0.5 µg/mL
- MIC of colistin in combination with the compound (K. pneumoniae CQ1942; Cpd conc. 0.8 μg/mL, strain E): 0.5 µg/mL
- MIC of colistin in combination with the compound (K. pneumoniae CQ1942; Cpd conc. 3.125 μg/mL, strain E): 0.5 µg/mL
- MIC of colistin in combination with the compound (K. pneumoniae CQ1942; Cpd conc. 6.25 μg/mL, strain E): 0.5 µg/mL
- MIC of colistin in combination with the compound (K. pneumoniae CQ1942; Cpd conc. 12.5 μg/mL, strain E): 0.5 µg/mL
- MIC of colistin in combination with the compound (K. pneumoniae CQ1942; Cpd conc. […], strain E): 0.5 µg/mL
- MIC (K. pneumoniae CQ1942; agent alone, no adjuvant (polymyxin conc. 0), strain E, read-out: MIC): > 100 µg/mL
- MIC (K. pneumoniae CQ1942; [3]): > 100 µg/mL
- MIC of compound in combination with PMB (K. pneumoniae CQ1942; PMB 0.25 μg/mL, strain E): > 100 µg/mL
- MIC of compound in combination with PMB (K. pneumoniae CQ1942; PMB 0.5 μg/mL, strain E): 1.6 µg/mL
- MIC of compound in combination with colistin (K. pneumoniae CQ1942; colistin 0.25 μg/mL, strain E): > 100 µg/mL
- MIC of compound in combination with colistin (K. pneumoniae CQ1942; colistin 0.5 μg/mL, strain E): ≤ 0.1 µg/mL
- MICA(A + B) (MIC of compound in combination with colistin) (K. pneumoniae CQ1942; [4]): 0.4 µg/mL
- MICB(A + B) (MIC of colistin in combination with compound) (K. pneumoniae CQ1942; [4]): 0.5 µg/mL
- Interpretation (of FICI) (K. pneumoniae CQ1942; compound + colistin): Indifferent (1.0 to 4.0 were indifferent)
- FICI (K. pneumoniae CQ1942; [5]): 1.002
- MIC of colistin in combination with the compound (E. coli ATCC 25922; Cpd conc. 0.4 μg/mL, strain A): 0.5 µg/mL
- MIC of colistin in combination with the compound (E. coli ATCC 25922; Cpd conc. 0.8 μg/mL, strain A): 0.5 µg/mL
- MIC of colistin in combination with the compound (E. coli ATCC 25922; Cpd conc. 3.125 μg/mL, strain A): 0.5 µg/mL
- MIC of colistin in combination with the compound (E. coli ATCC 25922; Cpd conc. 6.25 μg/mL, strain A): 0.5 µg/mL
- MIC of colistin in combination with the compound (E. coli ATCC 25922; Cpd conc. 12.5 μg/mL, strain A): 0.5 µg/mL
- MIC of colistin in combination with the compound (E. coli ATCC 25922; Cpd conc. […], strain A): 0.5 µg/mL
- MIC (E. coli ATCC 25922; agent alone, no adjuvant (polymyxin conc. 0), strain A, read-out: MIC): > 100 µg/mL
- MIC (E. coli ATCC 25922; [3]): > 100 µg/mL
- MIC of compound in combination with PMB (E. coli ATCC 25922; PMB 0.25 μg/mL, strain A): > 100 µg/mL
- MIC of compound in combination with PMB (E. coli ATCC 25922; PMB 0.5 μg/mL, strain A): ≤ 0.1 µg/mL
- MIC of compound in combination with colistin (E. coli ATCC 25922; colistin 0.5 μg/mL, strain A): ≤ 0.1 µg/mL
- MICA(A + B) (MIC of compound in combination with colistin) (E. coli ATCC 25922; [4]): 0.4 µg/mL
- MICB(A + B) (MIC of colistin in combination with compound) (E. coli ATCC 25922; [4]): 0.5 µg/mL
- Interpretation (of FICI) (E. coli ATCC 25922; compound + colistin): Indifferent (1.0 to 4.0 were indifferent)
- FICI (E. coli ATCC 25922; [5]): 1.002
